These results are taken from patent publication US20200181192A1, “DISULFIDE BIOCONJUGATION” (The Regents of the University of California, priority 2017, published 2020).

Series [1] can be described thus: Solubility in polar solvents. Format: physicochemical. Conditions: for solubility in polar solvents: acetonitrile, methanol; for solubility in methanol:water mixture: 9:1 methanol:water. The method, then: Previous bicyclobutane molecules (1a, 1b) were determined by Baran and coworkers to be bench stable so no further studies were conducted on their stability.
The conditions of series [2]: determined by Baran and coworkers; no further studies conducted; cited from earlier work.
For series [3] the following is noted: in diethyl ether; diphenyl disulfide, benzyl amine, diphenyl acetic acid, 1-butanethiol; GC-MS. From the text:
To determine the stability and selectivity of bicyclobutane molecules endo-3, exo-3 were solubilized in diethyl ether and tested with a variety of functional groups (diphenyl disulfide, benzyl amine, diphenyl acetic acid, and 1-butanethiol) then analyzed on a GC-MS to confirm the continued presence of starting materials.

For series [4] the following is noted: in solvent left on the bench, over 2 days.

With `O=S(=O)(c1ccccc1)C12CC1C2` (stereo not shown) [1a, 1-(phenylsulfonyl)bicyclo[1.1.0]butane], in series [1], the “solubility in polar solvents” value is given as “not be completely soluble”. Moreover, the bench stability entry in series [2] is on record as “bench stable”.
Regarding `Cc1ccc(S(=O)(=O)C23CC2C3)cc1` (stereo not shown) [1b, 1-tosylbicyclo[1.1.0]butane], in series [1], the “solubility in polar solvents” value is on record as “not be completely soluble”. The bench stability result in series [2] was “bench stable”.
As to `OC[C@H]1[C@H]2C[C@@H]12` [endo-3, Endo-Bicyclo[1.1.-]butane-2-methanol], in series [1], the “solubility in methanol:water mixture” value is on record as “soluble”. In addition, in series [3], the “reaction with functional groups (continued presence of starting materials)” value was “apparent only in the case with diphenyl acetic acid and 1-butane thiol”. In addition, the “stability in polar solvents by 1H-NMR” value in series [4] is reported as “no change”.
Consider `OC[C@@H]1[C@H]2C[C@@H]12` [exo-3, Exo-Bicyclo[1.1.-]butane-2-methanol], for which the “solubility in methanol:water mixture” value in series [1] is recorded as “soluble”. The “reaction with functional groups (continued presence of starting materials)” value in series [3] is “apparent only in the case with diphenyl acetic acid and 1-butane thiol”. In series [4], the “stability in polar solvents by 1H-NMR” value is recorded as “no change”.
